From patent US20250102494A1, “COMPOSITION FOR PREDICTING OXALIPLATIN DRUG EFFICACY, AND USE THEREOF” (SAMSUNG LIFE PUBLIC WELFARE FOUNDATION, priority 2022, published 2025)
Read-outs that look alike come from different tables or passages of the source.

Test system: HCT116 cells
Experiment: ATPlite cell viability after drug treatment, HCT116 cells in cell-line or organoid culture media
Type: cell-based
Parameters: AUC 1st / AUC 2nd / AUC 3rd / AUC Average: unit not given here
Method: Advanced DMEM/F12+++ (hereinafter referred to as “Ad/DF+++”) was used to produce colorectal cancer organoids. Ad/DF+++ was refrigerated at 4° C. until use, and was used in a cold state during cell washing. Ad/DF+++ medium containing the reagents shown in Table 1 below along with Ad/DF 1× (Gibco) was prepared.
After preparing the Ad/DF+++ medium containing the above reagents, an appropriate amount of Matrigel (Corning #356231) was added so that the ratio between Matrigel and cells suspended in the Ad/DF+++ medium was 7:3. Then, the cells were plated on low attachment well plates at an appropriate density. The density and the type and number of well plates were determined according to the characteristics of each cell type. The medium was prepared according to the composition shown in Table 2 below, and the cells were cultured (expanded) until the required level was reached while the medium was replaced every 3 to 4 days.
If the organoids were expanded as needed for the experiment, the medium was carefully removed, taking care not to touch the Matrigel. The cells were separated from the Matrigel by pipetting about 20 times with 1 ml of cold Ad/DF+++. The cells in 1 to 4 wells per 6-well plate were collected in one 50 ml tube. If cells are collected from more than 4 wells into one tube, the Metrigel may not be washed properly. For this reason, the cells were placed in several tubes. Thereafter, Ad/DF+++ was poured to 20 to 50 ml of each tube, followed by centrifugation at 400 g for 3 minutes at 4° C. The cells were dissociated with 1 to 2 mL of TrypLE™ Express Enzyme (Gibco, 1264-013), transferred to low-attachment 24 well plates, and then treated with 10 μM of Y-27632. Next, the cells were cultured in a CO2 incubator for 5 minutes at 37° C. After pipetting about 20 times, whether the cells would be dissociated into single cells was checked by microscopic observation. If the cells were not dissociated into single cells, the culture under CO2 and pipetting processes were repeated. After the single cells were transferred into 15-ml tubes, Ad/DF+++ was filled to 10 to 15 ml of each tube, followed by centrifugation at 400 g at 4° C. for 3 minutes. After suspending the pellet in Ad/DF+++, the cells were counted and diluted with medium according to the required number of cells.
12 hours after seeding in Experimental Example 1-2 above, the medium was changed with the medium shown in Table 3 below, followed by culturing to produce organoids.
Four hours after the medium change, the cells were treated with oxaliplatin, 5-FU, Irinotecan, and folinic acid. Five days after drug treatment, intracellular ATP expression was determined using the ATPlite assay kit (PerkinElmer), and the data were expressed in terms of cell viability, IC50, and AUC.
As the standard for confirming that cells are sensitive to the drug, the response of the cells to the drug was assumed to be 100%, and the luminescence value of surviving cells after drug treatment was analyzed and compared with the quantified drug response value.
Based on the assumption that the factor that increases the resistance of the organoids to oxaliplatin is an activator or inhibitor that changes the phenotype, the organoids prepared by excluding some or all of activators and inhibitors as shown in Table 4 below were treated with oxaliplatin.
In order to identify the factors that reduce the resistance to oxaliplatin of the Ex2 organoid, activators or inhibitors that change the phenotype were added one by one to the Ex2 organoid composition, thus producing organoids as shown in Table 8 below. Then, it was checked whether the produced organoids had increased resistance to oxaliplatin.

O=C1[O][Pt]2([NH][C@@H]3CCCC[C@H]3[NH]2)[O]C1=O [oxaliplatin]
AUC value, Ex2 compared with Ex1 (HCT116, FIG. 3): significantly lower AUC values than those of Ex1
AUC value, Ex3 and Ex4 compared with Ex1 (HCT116, FIG. 3): lower AUC values than Ex1
IC50 value, Ex2 compared with Ex1 (HCT116, FIG. 4): similarly lowered in Ex2 compared to Ex1
cell viability versus oxaliplatin concentration (HCT116, McCoys control, Ex1, Ex2, FIG. 5): similarly lowered in the control (McCoys) HCT116 cells and the cells cultured under the organoid culture conditions of Ex2
AUC 1st (HCT116 cell line in McCoys (control), 1st): 312.3
IC50 (HCT116 cell line in McCoys (control), 1st, read-out: IC50 (μM) 1st): 24.1 µM
AUC 2nd (HCT116 cell line in McCoys (control), 2nd): 278.4
IC50 (HCT116 cell line in McCoys (control), 2nd, read-out: IC50 (μM) 2nd): 10.7 µM
AUC 3rd (HCT116 cell line in McCoys (control), 3rd): 307.3
IC50 (HCT116 cell line in McCoys (control), 3rd, read-out: IC50 (μM) 3rd): 28.8 µM
AUC Average (HCT116 cell line in McCoys (control), average): 299.3
IC50 (HCT116 cell line in McCoys (control), average, read-out: IC50 (μM) Average): 21.2 µM
AUC 1st (HCT116 in Ex1 (all inhibitors and activators), 1st): 379.7
IC50 (HCT116 in Ex1 (all inhibitors and activators), 1st, read-out: IC50 (μM) 1st): 133 µM
AUC 2nd (HCT116 in Ex1, 2nd): 379.9
IC50 (HCT116 in Ex1, 2nd, read-out: IC50 (μM) 2nd): 98 µM
AUC 3rd (HCT116 in Ex1, 3rd): 390.0
IC50 (HCT116 in Ex1, 3rd, read-out: IC50 (μM) 3rd): 167 µM
AUC Average (HCT116 in Ex1, average): 383.2
IC50 (HCT116 in Ex1, average, read-out: IC50 (μM) Average): 133 µM
AUC 1st (HCT116 in Ex2 (no inhibitors, no activators), 1st): 319.8
IC50 (HCT116 in Ex2 (no inhibitors, no activators), 1st, read-out: IC50 (μM) 1st): 27.8 µM
AUC 1st (HCT116 in Ex2-1 (Ex2 + A83-01 500 nM), 1st): 328.0
IC50 (HCT116 in Ex2-1 (Ex2 + A83-01 500 nM), 1st, read-out: IC50 (μM) 1st): 46 µM
AUC 2nd (HCT116 in Ex2-1, 2nd): 341.6
IC50 (HCT116 in Ex2-1, 2nd, read-out: IC50 (μM) 2nd): 52.2 µM
AUC 3rd (HCT116 in Ex2-1, 3rd): 342.0
IC50 (HCT116 in Ex2-1, 3rd, read-out: IC50 (μM) 3rd): 81.8 µM
AUC Average (HCT116 in Ex2-1, average): 337.2
IC50 (HCT116 in Ex2-1, average, read-out: IC50 (μM) Average): 60 µM
AUC 1st (HCT116 in Ex2-2 (Ex2 + Y-27632 10 μM), 1st): 284.9
IC50 (HCT116 in Ex2-2 (Ex2 + Y-27632 10 μM), 1st, read-out: IC50 (μM) 1st): 13 µM
AUC 2nd (HCT116 in Ex2-2, 2nd): 320.5
IC50 (HCT116 in Ex2-2, 2nd, read-out: IC50 (μM) 2nd): 38.4 µM
AUC 3rd (HCT116 in Ex2-2, 3rd): 301.0
IC50 (HCT116 in Ex2-2, 3rd, read-out: IC50 (μM) 3rd): 16 µM
AUC Average (HCT116 in Ex2-2, average): 302.1
IC50 (HCT116 in Ex2-2, average, read-out: IC50 (μM) Average): 22.5 µM
AUC 1st (HCT116 in Ex2-3 (Ex2 + SB 202190 10 μM), 1st): 306.6
IC50 (HCT116 in Ex2-3 (Ex2 + SB 202190 10 μM), 1st, read-out: IC50 (μM) 1st): 30.2 µM
AUC 2nd (HCT116 in Ex2-3, 2nd): 343.3
IC50 (HCT116 in Ex2-3, 2nd, read-out: IC50 (μM) 2nd): 63.4 µM
AUC 3rd (HCT116 in Ex2-3, 3rd): 287.0
